This is an account of results in PubChem BioAssay AID1963984 (Molecular Pharmacology Branch, DTP, NCI, 2024).
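Note: spheroids exposed to agents for seven days before readout.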
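Throughout, for viability, T/C: percent viability relative to DMSO vehicle control taken as 100%.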

In the first test the test system is 233499-124-R-J3-PDC spheroids with HUVEC/MSC, viability. Put plainly: Anticancer human tumor 233499-124-R-J3-PDC patient-derived colon adenocarcinoma cell line growth inhibition [PI3K]. As to conditions: curve of first compound; second compound 0.00316 µM. In short, it runs like this: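 Tumor cells grown as multi-cell spheroids with HUVEC endothelial cells and MSC fibroblast-like stroma were treated with targeted agents combined with inavolisib, alpelisib, duvelisib or copanlisib. Doses fell in half-log steps from near clinical Cmax, else from 10 microM. Viability was measured.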
As to `C#Cc1c(F)ccc2cc(O)cc(-c3ncc4c(N5CC6CCC(C5)N6)nc(OCC56CCCN5CC(F)C6)nc4c3F)c12` (stereo unspecified) + CC(Nc1ccc2c(c1)OCCn1cc(N3C(=O)OCC3C(F)F)nc1-2)C(N)=O, the IC50 (in general, the midpoint of a concentration-inhibition curve) is over 10 µM.
Same read-out and setting: to `C=CC(=O)N1CCN(c2nc(=O)n(-c3c(C)ccnc3C(C)C)c3nc(-c4c(O)cccc4F)c(F)cc23)C(C)C1` (stereo unspecified) + CC(Nc1ccc2c(c1)OCCn1cc(N3C(=O)OCC3C(F)F)nc1-2)C(N)=O belongs over 10 µM; to `CC(Cn1ccc(-c2ccc(C#N)c(Cl)c2)n1)NC(=O)c1cc(C(C)O)[nH]n1` (stereo unspecified) + CC(Nc1ccc2c(c1)OCCn1cc(N3C(=O)OCC3C(F)F)nc1-2)C(N)=O, over 10 µM.

The same test, now with this note: curve of first compound; second compound 0.01 µM.
For `C#Cc1c(F)ccc2cc(O)cc(-c3ncc4c(N5CC6CCC(C5)N6)nc(OCC56CCCN5CC(F)C6)nc4c3F)c12` (stereo unspecified) + CC(Nc1ccc2c(c1)OCCn1cc(N3C(=O)OCC3C(F)F)nc1-2)C(N)=O, the IC50 came out at 2.92 µM.
Same read-out and setting: the same measure for `C=CC(=O)N1CCN(c2nc(=O)n(-c3c(C)ccnc3C(C)C)c3nc(-c4c(O)cccc4F)c(F)cc23)C(C)C1` (stereo unspecified) + CC(Nc1ccc2c(c1)OCCn1cc(N3C(=O)OCC3C(F)F)nc1-2)C(N)=O: over 10 µM.
Turning to `CC(Cn1ccc(-c2ccc(C#N)c(Cl)c2)n1)NC(=O)c1cc(C(C)O)[nH]n1` (stereo unspecified) + CC(Nc1ccc2c(c1)OCCn1cc(N3C(=O)OCC3C(F)F)nc1-2)C(N)=O, the IC50 is over 10 µM.

The test is the same for the next values; noted with them: curve of first compound; second compound 0.0316 µM.
Consider `C#Cc1c(F)ccc2cc(O)cc(-c3ncc4c(N5CC6CCC(C5)N6)nc(OCC56CCCN5CC(F)C6)nc4c3F)c12` (stereo unspecified) + CC(Nc1ccc2c(c1)OCCn1cc(N3C(=O)OCC3C(F)F)nc1-2)C(N)=O, for which the IC50 was over 10 µM.
On the same count and under the same terms, to `C=CC(=O)N1CCN(c2nc(=O)n(-c3c(C)ccnc3C(C)C)c3nc(-c4c(O)cccc4F)c(F)cc23)C(C)C1` (stereo unspecified) + CC(Nc1ccc2c(c1)OCCn1cc(N3C(=O)OCC3C(F)F)nc1-2)C(N)=O belongs over 10 µM; to `CC(Cn1ccc(-c2ccc(C#N)c(Cl)c2)n1)NC(=O)c1cc(C(C)O)[nH]n1` (stereo unspecified) + CC(Nc1ccc2c(c1)OCCn1cc(N3C(=O)OCC3C(F)F)nc1-2)C(N)=O, over 10 µM.

Staying with this test, now noted: curve of first compound; second compound 0.1 µM.
As to `C#Cc1c(F)ccc2cc(O)cc(-c3ncc4c(N5CC6CCC(C5)N6)nc(OCC56CCCN5CC(F)C6)nc4c3F)c12` (stereo unspecified) + CC(Nc1ccc2c(c1)OCCn1cc(N3C(=O)OCC3C(F)F)nc1-2)C(N)=O, the IC50 is over 10 µM.
The same measure, in the same setting: to `C=CC(=O)N1CCN(c2nc(=O)n(-c3c(C)ccnc3C(C)C)c3nc(-c4c(O)cccc4F)c(F)cc23)C(C)C1` (stereo unspecified) + CC(Nc1ccc2c(c1)OCCn1cc(N3C(=O)OCC3C(F)F)nc1-2)C(N)=O belongs over 10 µM; to `CC(Cn1ccc(-c2ccc(C#N)c(Cl)c2)n1)NC(=O)c1cc(C(C)O)[nH]n1` (stereo unspecified) + CC(Nc1ccc2c(c1)OCCn1cc(N3C(=O)OCC3C(F)F)nc1-2)C(N)=O, over 10 µM.

The test is the same for the next values; noted with them: curve of first compound; second compound 0.316 µM.
Consider `C#Cc1c(F)ccc2cc(O)cc(-c3ncc4c(N5CC6CCC(C5)N6)nc(OCC56CCCN5CC(F)C6)nc4c3F)c12` (stereo unspecified) + CC(Nc1ccc2c(c1)OCCn1cc(N3C(=O)OCC3C(F)F)nc1-2)C(N)=O, for which the IC50 was determined as 5.35 µM.
For the compound `C=CC(=O)N1CCN(c2nc(=O)n(-c3c(C)ccnc3C(C)C)c3nc(-c4c(O)cccc4F)c(F)cc23)C(C)C1` (stereo unspecified) + CC(Nc1ccc2c(c1)OCCn1cc(N3C(=O)OCC3C(F)F)nc1-2)C(N)=O, the IC50 is over 10 µM.
Regarding `CC(Cn1ccc(-c2ccc(C#N)c(Cl)c2)n1)NC(=O)c1cc(C(C)O)[nH]n1` (stereo unspecified) + CC(Nc1ccc2c(c1)OCCn1cc(N3C(=O)OCC3C(F)F)nc1-2)C(N)=O, the IC50 is 7.39 µM.

Staying with this test, now noted: curve of first compound; second compound 1 µM.
Take `C#Cc1c(F)ccc2cc(O)cc(-c3ncc4c(N5CC6CCC(C5)N6)nc(OCC56CCCN5CC(F)C6)nc4c3F)c12` (stereo unspecified) + CC(Nc1ccc2c(c1)OCCn1cc(N3C(=O)OCC3C(F)F)nc1-2)C(N)=O: the IC50 was 0.716 µM.
As to `C=CC(=O)N1CCN(c2nc(=O)n(-c3c(C)ccnc3C(C)C)c3nc(-c4c(O)cccc4F)c(F)cc23)C(C)C1` (stereo unspecified) + CC(Nc1ccc2c(c1)OCCn1cc(N3C(=O)OCC3C(F)F)nc1-2)C(N)=O, the IC50 is over 10 µM.
Regarding `CC(Cn1ccc(-c2ccc(C#N)c(Cl)c2)n1)NC(=O)c1cc(C(C)O)[nH]n1` (stereo unspecified) + CC(Nc1ccc2c(c1)OCCn1cc(N3C(=O)OCC3C(F)F)nc1-2)C(N)=O, the IC50 was over 10 µM.

Still in this test, the particulars now being: second compound 0.00316 µM; first compound 0.0316 µM; stronger effect = lower value.
On to `C#Cc1c(F)ccc2cc(O)cc(-c3ncc4c(N5CC6CCC(C5)N6)nc(OCC56CCCN5CC(F)C6)nc4c3F)c12` (stereo unspecified) + CC(Nc1ccc2c(c1)OCCn1cc(N3C(=O)OCC3C(F)F)nc1-2)C(N)=O, for which the viability, T/C (in general, the ratio of treated to control) is 83.7%.
On the same count and under the same terms, to `C=CC(=O)N1CCN(c2nc(=O)n(-c3c(C)ccnc3C(C)C)c3nc(-c4c(O)cccc4F)c(F)cc23)C(C)C1` (stereo unspecified) + CC(Nc1ccc2c(c1)OCCn1cc(N3C(=O)OCC3C(F)F)nc1-2)C(N)=O belongs 101%; to `CC(Cn1ccc(-c2ccc(C#N)c(Cl)c2)n1)NC(=O)c1cc(C(C)O)[nH]n1` (stereo unspecified) + CC(Nc1ccc2c(c1)OCCn1cc(N3C(=O)OCC3C(F)F)nc1-2)C(N)=O, 97.5%.

The same test, now with this note: second compound 0.00316 µM; first compound 0.1 µM; stronger effect = lower value.
As to `C#Cc1c(F)ccc2cc(O)cc(-c3ncc4c(N5CC6CCC(C5)N6)nc(OCC56CCCN5CC(F)C6)nc4c3F)c12` (stereo unspecified) + CC(Nc1ccc2c(c1)OCCn1cc(N3C(=O)OCC3C(F)F)nc1-2)C(N)=O, the viability, T/C is 76%.
Still for that read-out and setting: the same measure for `C=CC(=O)N1CCN(c2nc(=O)n(-c3c(C)ccnc3C(C)C)c3nc(-c4c(O)cccc4F)c(F)cc23)C(C)C1` (stereo unspecified) + CC(Nc1ccc2c(c1)OCCn1cc(N3C(=O)OCC3C(F)F)nc1-2)C(N)=O: 87.5%; for `CC(Cn1ccc(-c2ccc(C#N)c(Cl)c2)n1)NC(=O)c1cc(C(C)O)[nH]n1` (stereo unspecified) + CC(Nc1ccc2c(c1)OCCn1cc(N3C(=O)OCC3C(F)F)nc1-2)C(N)=O: 84.3%.

Staying with this test, now noted: second compound 0.00316 µM; first compound 0.316 µM; stronger effect = lower value.
As to `C#Cc1c(F)ccc2cc(O)cc(-c3ncc4c(N5CC6CCC(C5)N6)nc(OCC56CCCN5CC(F)C6)nc4c3F)c12` (stereo unspecified) + CC(Nc1ccc2c(c1)OCCn1cc(N3C(=O)OCC3C(F)F)nc1-2)C(N)=O, the viability, T/C was 92%.
Turning to `C=CC(=O)N1CCN(c2nc(=O)n(-c3c(C)ccnc3C(C)C)c3nc(-c4c(O)cccc4F)c(F)cc23)C(C)C1` (stereo unspecified) + CC(Nc1ccc2c(c1)OCCn1cc(N3C(=O)OCC3C(F)F)nc1-2)C(N)=O, the viability, T/C is 87.9%.
Same read-out and setting: the same measure for `CC(Cn1ccc(-c2ccc(C#N)c(Cl)c2)n1)NC(=O)c1cc(C(C)O)[nH]n1` (stereo unspecified) + CC(Nc1ccc2c(c1)OCCn1cc(N3C(=O)OCC3C(F)F)nc1-2)C(N)=O: 86.6%.

Still in this test, the particulars now being: second compound 0.00316 µM; first compound 1 µM; stronger effect = lower value.
On to `C#Cc1c(F)ccc2cc(O)cc(-c3ncc4c(N5CC6CCC(C5)N6)nc(OCC56CCCN5CC(F)C6)nc4c3F)c12` (stereo unspecified) + CC(Nc1ccc2c(c1)OCCn1cc(N3C(=O)OCC3C(F)F)nc1-2)C(N)=O, for which the viability, T/C was 110%.
The same measure, in the same setting: the same measure for `C=CC(=O)N1CCN(c2nc(=O)n(-c3c(C)ccnc3C(C)C)c3nc(-c4c(O)cccc4F)c(F)cc23)C(C)C1` (stereo unspecified) + CC(Nc1ccc2c(c1)OCCn1cc(N3C(=O)OCC3C(F)F)nc1-2)C(N)=O: 113%.
In the case of `CC(Cn1ccc(-c2ccc(C#N)c(Cl)c2)n1)NC(=O)c1cc(C(C)O)[nH]n1` (stereo unspecified) + CC(Nc1ccc2c(c1)OCCn1cc(N3C(=O)OCC3C(F)F)nc1-2)C(N)=O, the viability, T/C is 83.1%.

The same test, now with this note: second compound 0.00316 µM; first compound 3.16 µM; stronger effect = lower value.
On to `C#Cc1c(F)ccc2cc(O)cc(-c3ncc4c(N5CC6CCC(C5)N6)nc(OCC56CCCN5CC(F)C6)nc4c3F)c12` (stereo unspecified) + CC(Nc1ccc2c(c1)OCCn1cc(N3C(=O)OCC3C(F)F)nc1-2)C(N)=O, for which the viability, T/C was 95.3%.
